Measurements as given in patent publication US20210008088A1, “COMPOSITION FOR PREVENTING OR TREATING NON-ALCOHOLIC LIVER DISEASE OR INSULIN RESISTANCE COMPRISING GINSENOSIDE F2” (INTELLIGENT SYNTHETIC BIOLOGY CENTER, priority 2015, published 2021).

How the values were obtained:
[1] = test system: adipogenesis in the liver (SREBP1c, FAS, CB1R, NAPE-PLD); assay: Analysis of liver tissues of high fat diet-fed mice (H&E, Oil-red O staining, triglyceride, protein and gene expression); format: in vivo, mouse
Method: Hematoxylin and Eosin (H&E) staining was performed for the observation of the changes in the liver tissues, and the triglycerides in hepatocytes were stained via Oil-red O staining, and the results are shown under ×100 magnification (FIG. 2A). As a result, it was confirmed again that the lipid accumulation in hepatocytes was reduced.

[2] = test system: mouse model fed with high fat diet; assay: Effect of alleviating fatty liver in mouse model fed with high fat diet; format: in vivo; conditions: 50 mg/kg orally five days a week for 12 weeks
Method: The effect of ginsenoside F2 on alleviating fatty liver was confirmed using a mouse model fed with high fat diet. Eight-week-old male mouse (body weight; 25 g to 28 g) were orally fed with high fat diet and ginsenoside F2 (50 mg/kg) five days a week for a period of 12 weeks. […] From the results, it was confirmed that ginsenoside F2 has the effect of inhibiting fatty liver production in mice even when they were fed with high fat diet.

hepatic stellate cells = assay: Expression of endocannabinoid synthase in hepatic stellate cells treated with TNF-α; format: cell-based; conditions: hepatic stellate cells after TNF-α; 10 μM, 20 μM, and 30 μM; 24 hours (FIG. 5)
Method: After treating hepatic stellate cells with TNF-α, they were treated with ginsenoside F2 at concentrations of 10 μM, 20 μM, and 30 μM, and cultured for 24 hours. As a result of examining the difference in expression levels in the cultured hepatic stellate cells, it was confirmed that ginsenoside F2 inhibits the expression of DAGLα and DAGLβ, which are enzymes important for the synthesis of 2-AG, a kind of endocannabinoids, and that ginsenoside F2 inhibits the expression of NAPE-PLD and FAAH, which are factors associated with liver damage (FIG. 5).

[3] = test system: breast cancer stem cells (CSCs); conditions: inducing apoptosis along with autophagy in breast cancer stem cells; Mai T T et al. 2012; cited from earlier work
[4] = test system: mouse fed with high fat diet; assay: Improvement in insulin sensitivity: blood glucose after glucose and insulin administration; format: in vivo; conditions: vs control group (FIG. 3)
Method: An eleven-week-old mouse was administered with glucose and insulin and the blood glucose level was monitored in a time-dependent manner.

glioblastoma = conditions: xenograft model in SD rats; Shin J Y et al. 2012; cited from earlier work
[5] = test system: inflammatory cytokines (TNF-α, IL-1β, and IL-6); assay: Expression of inflammatory cytokines in mouse fed with high fat diet; format: in vivo; conditions: mouse fed with high fat diet and ginsenoside F2 (FIG. 4)
[6] = liver, high fat diet-fed mice (FIGS. 2C and 2D)

Question: With CC(C)=CCC[C@](C)(O[C@@H]1O[C@H](CO)[C@@H](O)[C@H](O)[C@H]1O)[C@H]1CC[C@]2(C)[C@@H]1[C@H](O)C[C@@H]1[C@@]3(C)CC[C@H](O[C@@H]4O[C@H](CO)[C@@H](O)[C@H](O)[C@H]4O)C(C)(C)[C@@H]3CC[C@]12C [ginsenoside F2] as the compound, how does the “lipid accumulation in hepatocytes” value ([1]; H&E and Oil-red O staining, ×100 magnification (FIG. 2A)) read?
Answer: Its value is “reduced”.

Question: What about the “triglyceride level in the liver” value ([1]; high fat diet-fed mice (FIG. 2B)) of the same compound?
Answer: Its value is “lowered”.

Question: And the “expression of CB1R gene” value [1, 6]?
Answer: Its value is “reduced”.

Question: And the “expression of FAS gene” value [1, 6]?
Answer: Its value is “reduced”.

Question: What about the “expression of NAPE-PLD gene” value [1, 6] of the same compound?
Answer: Its value is “reduced”.

Question: And the “expression of SREBP1c gene” value [1, 6]?
Answer: The value was “reduced”.

Question: And the “protein expression of FAS” value [1, 6]?
Answer: The value was “reduced”.

Question: And the “protein expression of SREBP1c” value [1, 6]?
Answer: Its value is “reduced”.

Question: What about the size of liver ([2]; vs control group (FIG. 1A)) of the same compound?
Answer: The size of liver was “significant decrease”.

Question: And the weight of liver ([2]; vs control group (FIG. 1B))?
Answer: Its weight of liver is “significant decrease”.

Question: And the “expression of DAGLα” value (hepatic stellate cells)?
Answer: The value was “inhibits”.

Question: What about the “expression of DAGLβ” value (hepatic stellate cells) of the same compound?
Answer: Its value is “inhibits”.

Question: And the “expression of FAAH” value (hepatic stellate cells)?
Answer: The value was “inhibits”.

Question: What about the “expression of NAPE-PLD” value (hepatic stellate cells) of the same compound?
Answer: Its value is “inhibits”.

Question: And the “anticancer effect in breast cancer” value [3]?
Answer: Its value is “anticancer effect”.

Question: And the “blood glucose level with time” value [4]?
Answer: The value was “decrease”.

Question: What about the “anticancer effect against glioblastoma” value (glioblastoma) of the same compound?
Answer: Its value is “anticancer effect”.

Question: What about the “expression of IL-1β” value [5] of the same compound?
Answer: The value was “inhibit”.

Question: And the “expression of IL-6” value [5]?
Answer: Its value is “inhibit”.

Question: What about the “expression of TNF-α” value [5] of the same compound?
Answer: Its value is “inhibit”.
